Measurements taken from patent publication US12533411B2, “Compositions comprising anti-CD38 antibodies and carfilzomib” (Sanofi-Aventis U.S. LLC, priority 2013, dated 2026).
“Also recorded” adds a separate entry of the source.

How the values were obtained:
[1] = tested on: NCI-H929 multiple myeloma model; assay: NCI-H929 subcutaneous multiple myeloma xenograft mouse model (Example 1); format: in vivo, Balb/c Scid mice; details: carfilzomib 2 mg/kg 2×/wk × 3 wk IV; for Activity: D69, hu38SB19 0.5 mg/kg 2×/wk × 2 wk IV
Text: The subcutaneous multiple myeloma (MM) xenograft mouse models were established using NCI-H929 or RPMI-8226 cell lines. Specifically, 5-6 week old female Balb/c Scid mice were obtained from Jackson Lab. Mice were housed for 7-10 days prior to implantation. Mice were housed in a dedicated room in the UCSF Mt Zion Animal Barrier Facility. NCI-H929 and RPMI-8226 cells were obtained from the German Collection of Microorganisms and Cell Cultures, DSMZ, (Deutsche Sammlung von Mikroorganismen and Zellkulturen), and grown in sterile suspension culture in T225 flasks as follows: NCI-H929: RPMI1640+20% FBS+4 mM L−glutamine+1 mM sodium pyruvate+50 μM mercaptoethanol. RPMI-8226: RPMI1640+10% FBS+4 mM L-glutamine. At the time of implantation, mice were shaved on the right flank and shoulder region and anesthetized with ip avertin. MM cells suspended in serum free RPMI 1640 media diluted 1:1 with Matrigel (BD) at a concentration of 1×10^8 cells per ml were injected sc into the right flank in 100 μL volume (1×10^7 cells) using a 1 ml syringe and 25 g needle. Mice were monitored twice weekly for the appearance of tumors and once tumors were visible, measurements were collected twice weekly for body weight and tumor volume. Electronic balance and calipers were used and data was collected directly into a study management program (Study Director). When the mean tumor volume reached about 150-200 mm^3, the mice were distributed into treatment groups of 8-10 mice per groups and dosing was begun. […] Dose levels for use in combination studies are as follows: Data were collected using electronic balance and calipers using a study management application called StudyLog (Study Director). […] Antitumor activity was determined according to NCI standards based on the ratio of the median tumor volume change of the treated/median tumor volume change of the control×100 (% ΔT/ΔC). Low numerical values for ΔT/ΔC describe stronger anti-tumor activity. Anti-tumor activity is defined as T/C≤40% at minimum. ΔT/ΔC<10% is considered high anti-tumor activity.

NCI-H929 xenografts = assay: NCI-H929 hind-flank xenograft tumor growth (Example 3, FIGS. 12-13); format: in vivo, Balb/c Scid mice; details: for tumor growth inhibition, single agent: single-agent administration, NCI-H929 hind-flank model (FIG. 12)
Protocol: Carfilzomib (PR-171) was obtained from Chemie Tek (CT-CARP 98). Carfilzomib was formulated in an aqueous solution of 10% (w/v) sulfobutylether-h-cyclodextrin (Cydex) and 10 mmol/L sodium citrate (pH 3.5), 2 mg/ml stock prepared and frozen at −80° C., diluted daily with vehicle before injection. Carfilzomib was administered weekly qd×2×3 wk (iv).
Test Animals: 5-6 week old female Balb/c Scid mice were obtained from Jackson Lab. Mice were housed for 7-10 days prior to implantation of multiple myeloma (MM) cell lines. Mice were housed in a dedicated room in the UCSF Mt. Zion Animal Barrier Facility.
(§1) Xenograft Model: At the time of implantation, mice were shaved on the right flank and shoulder. MM cells were suspended in serum free RPMI 1640 media diluted 1:1 with Matrigel (BD) at a concentration of 1×10^8 cells per ml were injected sc into the right flank in 100 ul volume (1×10^7 cells) using a 1 ml syringe and 25 g needle. Mice were monitored twice weekly for the appearance of tumors and once tumors were visible, measurements were collected twice weekly for body weight and tumor volume. Electronic balance and calipers were used and data was collected directly into a study management program (Study Director). When the mean tumor volume reached approximately 150-200 mm^3, mice were distributed into treatment groups of 8-10 mice per group and dosing was initiated.

[2] = tested on: RPMI-8226 xenograft models; assay: RPMI-8226 subcutaneous multiple myeloma xenograft mouse model (Example 1); format: in vivo, Balb/c Scid mice; details: Day 41, carfilzomib 3 mg/kg qd×2 every wk×3 wk, hu38SB19 3 mg/kg BIW×2 wk
Text: The subcutaneous multiple myeloma (MM) xenograft mouse models were established using NCI-H929 or RPMI-8226 cell lines. Specifically, 5-6 week old female Balb/c Scid mice were obtained from Jackson Lab. Mice were housed for 7-10 days prior to implantation. Mice were housed in a dedicated room in the UCSF Mt Zion Animal Barrier Facility. NCI-H929 and RPMI-8226 cells were obtained from the German Collection of Microorganisms and Cell Cultures, DSMZ, (Deutsche Sammlung von Mikroorganismen and Zellkulturen), and grown in sterile suspension culture in T225 flasks as follows: NCI-H929: RPMI1640+20% FBS+4 mM L−glutamine+1 mM sodium pyruvate+50 μM mercaptoethanol. RPMI-8226: RPMI1640+10% FBS+4 mM L-glutamine.
as §1, with “At” for “Xenograft Model: At”, “shoulder region and anesthetized with ip avertin.” for “shoulder.”, “cells” for “cells were”, “μL” for “ul”, “When the mean tumor volume reached approximately 150-200 mm^3, mice were distributed into treatment groups of 8-10 mice per group and dosing was initiated.” left out

tumor cells [3] = details: reported in the literature; cited from earlier work
tumor cells [4] = assay: Direct pro-apoptotic activity on tumor cells without cross-linking; format: cell-based; details: preclinical studies

Row | Molecule | Activity [1] | Activity ([1]; listed as carfilzomib) | % ΔT/ΔC (D69) ([1]; hu38SB19 0.5 mg/kg 2×/wk × 2 wk IV) [%] | tumor growth inhibition, single agent (NCI-H929 xenografts) | complete regressions [2] | induction of apoptosis (tumor cells [3]) | direct pro-apoptotic activity (tumor cells [4]) | elimination of palpable tumors (NCI-H929 xenografts; hu38SB19 as sole active ingredient, four cumulative doses twice weekly at 3 mg/kg (FIG. 12))
1 | CC(C)C[C@H](NC(=O)[C@H](CCc1ccccc1)NC(=O)CN1CCOCC1)C(=O)N[C@@H](Cc1ccccc1)C(=O)N[C@@H](CC(C)C)C(=O)[C@@]1(C)CO1 [Carfilzomib, (S)-4-Methyl-N-((S)-1-(((S)-4-methyl-1-((R)-2-methyloxiran-2-yl)-1-oxopentan-2-yl)amino)-1-oxo-3-phenylpropan-2-yl)-2-((S)-2-(2-morpholinoacetamido)-4-phenylbutanamido)pentanamide] | Inactive | inactive | 68 | not robustly sensitive to single-agent therapy | 0/10 |  |  | 
2 | Daratumumab: CD38 antibody reported to induce apoptosis only after cross-linking with a secondary antibody |  |  |  |  |  | able to induce apoptosis only after cross-linking with a secondary antibody |  | 
3 | hu38SB19: humanized anti-CD38 antibody; VH SEQ ID NO: 66, VL SEQ ID NO: 62 or 64; humanized version of 38SB19 | Inactive |  |  | dose-dependent inhibition of tumor growth; also recorded: dose-dependent anti-tumor effects | 2/10 |  | potent direct pro-apoptotic activity | eliminate palpable tumors in all mice
